Here are results for one molecule from patent US20110262497A1, “NOVEL EZETIMIBE FORMULATIONS” (LEK Pharmaceuticals D.D., priority 2008, published 2011).

The series in a line: solubility of ezetimibe in water. It counts as physicochemical.

The structures appear in SMILES notation.

The solubility is how much of the substance goes into solution per volume. A higher solubility goes with much dissolved substance. Turning to `O=C1[C@H](CC[C@H](O)c2ccc(F)cc2)[C@@H](c2ccc(O)cc2)N1c1ccc(F)cc1` [ezetimibe, 1-(4-fluorophenyl)-3(R)-[3-(4-fluorophenyl)-3(S)-hydroxypropyl]-4(S)-(4-hydroxyphenyl)-2-azetidinone], the solubility is less than 10 µg/mL.
